Test system: corneal esterase enzymes
Experiment: Enzymatic hydrolysis of fluprostenol 1,15-lactone by corneal esterase enzymes (incubation with bovine corneal tissue; TLC and HPLC analysis)
Format: in vitro ADME
Conditions: pH 7.4 phosphate buffered saline, 37° C.
Procedure: Enzymatic hydrolysis of fluprostenol 1,15-lactone by corneal esterase enzymes was documented by suspending 500 μg of fluprostenol 1,15-lactone in 10 ml of pH 7.4 phosphate buffered saline containing approximately 40 mg of freshly collected bovine cornea! tissue. The mixture was incubated at 37° C. and analyzed at 2 hour, 4 hour and 18 hour time intervals by Thin Layer Chromatography (TLC; Analtech silica gel G-60 plates) using 40:60 acetone:dichloromethane containing 0.5% acetic acid. The plates were visualized by spraying with vanillin dissolved in methanol and phosphoric acid; followed by charring on a hot plate. PGF2α methyl ester, which is known to be hydrolyzed by corneal esterases, was subjected to the same procedure as a control.
The results are shown in FIGS. 3A-3D which are images of chromatography plates developed at 2 hours (FIGS. 3A and 3C) and 4 hours (FIGS. 3B and 3D), respectively. […]
The mixture of fluprostenol 1,15-lactone and bovine corneal tissue was also analyzed using HPLC under the conditions specified in FIGS. 4A and 4B which are graphic representations of the HPLC analysis results for a fluprostenol 1,15-lactone standard (FIG. 4A) and a mixture of fluprostenol 1,15-lactone and bovine corneal tissue incubated for 4 hours (FIG. 4B).

O=C1CCC/C=C\CC2C(/C=C/[C@@H](COc3cccc(C(F)(F)F)c3)O1)[C@H](O)C[C@@H]2O (some centres unmarked) [fluprostenol 1,15-lactone]
conversion of fluprostenol 1,15-lactone to fluprostenol free acid (HPLC, after 4 hours): more than 50%
release of the free acid by hydrolysis (TLC, by 4 hours): clearly shown

Reference: US20080070978A1, “Internal 1,15-Lactones Of Fluprostenol And Related Prostaglandin F2a Analogs And Their Use In The Treatment Of Glaucoma And Intraocular Hypertension” (priority 2000, published 2008)
